From ChEMBL document CHEMBL3885881, “DrugMatrix”

Species on record: Rattus norvegicus
Test: DrugMatrix - Regimen: Daily Repeat
Format: toxicity, organism-based, Sprague-Dawley
Design: regimen Daily Repeat, gender Male, age 6-8 weeks
Details: in vivo, sc, 0 mg/kg, route mini-PUMP - SUBCUTANEOUS, dose level Control, vehicle 100 % SALINE; for ABSOLUTE BASOPHIL / ABSOLUTE EOSINOPHIL / ABSOLUTE LYMPHOCYTE / ABSOLUTE MONOCYTE / ABSOLUTE SEGMENTED NEUTROPHIL / BASOPHIL / EOSINOPHIL / ERYTHROCYTE COUNT / HEMATOCRIT / HEMOGLOBIN / LEUKOCYTE COUNT / LYMPHOCYTE / MEAN CORPUSCULAR HEMOGLOBIN / MEAN CORPUSCULAR HEMOGLOBIN CONCENTRATION / MEAN CORPUSCULAR VOLUME / MONOCYTE / NEUTROPHIL / NUCLEATED RED BLOOD CELLS / PLATELET COUNT: tissue Blood; for ALANINE AMINOTRANSFERASE / ALBUMIN / ALKALINE PHOSPHATASE / ASPARTATE AMINOTRANSFERASE / BLOOD UREA NITROGEN / CARBON DIOXIDE / CHLORIDE / CHOLESTEROL / CREATININE / GLUCOSE / LACTATE DEHYDROGENASE / LIPASE / PHOSPHORUS / POTASSIUM / SODIUM / TOTAL BILIRUBIN / TOTAL PROTEIN / URIC ACID: tissue Plasma

## NC[C@H](O)c1ccc(O)c(O)c1 [NOREPINEPHRINE]
72 h, time 3 day
  ABSOLUTE BASOPHIL: 0 CELLS/uL
  ABSOLUTE EOSINOPHIL: 77.17 CELLS/uL
  ABSOLUTE LYMPHOCYTE: 14293.83 CELLS/uL
  ABSOLUTE MONOCYTE: 354 CELLS/uL
  ABSOLUTE SEGMENTED NEUTROPHIL: 1658.33 CELLS/uL
  BASOPHIL: 0%
  EOSINOPHIL: 0.5%
  ERYTHROCYTE COUNT: 6.27 x10E6/uL
  HEMATOCRIT: 36.95%
  HEMOGLOBIN: 13.4 G/DL
  LEUKOCYTE COUNT: 16.38 x10E3/uL
  LYMPHOCYTE: 87.17%
  MEAN CORPUSCULAR HEMOGLOBIN: 21.42 pg
  MEAN CORPUSCULAR HEMOGLOBIN CONCENTRATION: 36.27 G/DL
  MEAN CORPUSCULAR VOLUME: 59.03 fL
  MONOCYTE: 2%
  NEUTROPHIL: 10.33%
  NUCLEATED RED BLOOD CELLS: 0 /100WBC
  PLATELET COUNT: 904.67 x10E3/uL
  ALANINE AMINOTRANSFERASE: 48.33 u/L
  ALBUMIN: 3.82 G/DL
  ALKALINE PHOSPHATASE: 282.33 u/L
  ASPARTATE AMINOTRANSFERASE: 86.83 u/L
  BLOOD UREA NITROGEN: 20.17 mg/dL
  CARBON DIOXIDE: 34.67 mmol/L
  CHLORIDE: 102 MEQ/L
  CHOLESTEROL: 71.5 mg/dL
  CREATININE: 0.2 mg/dL
  GLUCOSE: 136.83 mg/dL
  LACTATE DEHYDROGENASE: 159 u/L
  LIPASE: 9 u/L
  PHOSPHORUS: 10.12 mg/dL
  POTASSIUM: 5.92 MEQ/L
  SODIUM: 147.8 MEQ/L
  TOTAL BILIRUBIN: 0.2 mg/dL
  TOTAL PROTEIN: 6.05 G/DL
  URIC ACID: 1.4 mg/dL
120 h, time 5 day
  ABSOLUTE BASOPHIL: 0 CELLS/uL
  ABSOLUTE EOSINOPHIL: 0 CELLS/uL
  ABSOLUTE LYMPHOCYTE: 14257.33 CELLS/uL
  ABSOLUTE MONOCYTE: 326 CELLS/uL
  ABSOLUTE SEGMENTED NEUTROPHIL: 3216.67 CELLS/uL
  BASOPHIL: 0%
  EOSINOPHIL: 0%
  ERYTHROCYTE COUNT: 6.11 x10E6/uL
  HEMATOCRIT: 36.22%
  HEMOGLOBIN: 13.18 G/DL
  LEUKOCYTE COUNT: 17.8 x10E3/uL
  LYMPHOCYTE: 80.5%
  MEAN CORPUSCULAR HEMOGLOBIN: 21.62 pg
  MEAN CORPUSCULAR HEMOGLOBIN CONCENTRATION: 36.42 G/DL
  MEAN CORPUSCULAR VOLUME: 59.37 fL
  MONOCYTE: 1.83%
  NEUTROPHIL: 17.67%
  NUCLEATED RED BLOOD CELLS: 0 /100WBC
  PLATELET COUNT: 1311 x10E3/uL
  ALANINE AMINOTRANSFERASE: 47 u/L
  ALBUMIN: 3.83 G/DL
  ALKALINE PHOSPHATASE: 260.33 u/L
  ASPARTATE AMINOTRANSFERASE: 76.17 u/L
  BLOOD UREA NITROGEN: 14.67 mg/dL
  CARBON DIOXIDE: 31.33 mmol/L
  CHLORIDE: 101.17 MEQ/L
  CHOLESTEROL: 75 mg/dL
  CREATININE: 0.16 mg/dL
  GLUCOSE: 152.67 mg/dL
  LACTATE DEHYDROGENASE: 147.33 u/L
  LIPASE: 9.33 u/L
  PHOSPHORUS: 10.97 mg/dL
  POTASSIUM: 6 MEQ/L
  SODIUM: 145.52 MEQ/L
  TOTAL BILIRUBIN: 0.17 mg/dL
  TOTAL PROTEIN: 5.83 G/DL
  URIC ACID: 1.27 mg/dL
[…], time 14 day
  ABSOLUTE BASOPHIL: 0 CELLS/uL
  ABSOLUTE EOSINOPHIL: 64.5 CELLS/uL
  ABSOLUTE LYMPHOCYTE: 12507.83 CELLS/uL
  ABSOLUTE MONOCYTE: 380.33 CELLS/uL
  ABSOLUTE SEGMENTED NEUTROPHIL: 2414 CELLS/uL
  BASOPHIL: 0%
  EOSINOPHIL: 0.5%
  ERYTHROCYTE COUNT: 6.1 x10E6/uL
  HEMATOCRIT: 35.4%
  HEMOGLOBIN: 12.88 G/DL
  LEUKOCYTE COUNT: 15.37 x10E3/uL
  LYMPHOCYTE: 80.83%
  MEAN CORPUSCULAR HEMOGLOBIN: 21.18 pg
  MEAN CORPUSCULAR HEMOGLOBIN CONCENTRATION: 36.43 G/DL
  MEAN CORPUSCULAR VOLUME: 58.17 fL
  MONOCYTE: 2.17%
  NEUTROPHIL: 16.5%
  NUCLEATED RED BLOOD CELLS: 0.17 /100WBC
  PLATELET COUNT: 1016 x10E3/uL
  ALANINE AMINOTRANSFERASE: 53.33 u/L
  ALBUMIN: 3.93 G/DL
  ALKALINE PHOSPHATASE: 319.83 u/L
  ASPARTATE AMINOTRANSFERASE: 84 u/L
  BLOOD UREA NITROGEN: 15.5 mg/dL
  CARBON DIOXIDE: 34 mmol/L
  CHLORIDE: 101.83 MEQ/L
  CHOLESTEROL: 57 mg/dL
  CREATININE: 0.21 mg/dL
  GLUCOSE: 182.33 mg/dL
  LACTATE DEHYDROGENASE: 104.67 u/L
  LIPASE: 9.17 u/L
  PHOSPHORUS: 11.12 mg/dL
  POTASSIUM: 5.81 MEQ/L
  SODIUM: 144.85 MEQ/L
  TOTAL BILIRUBIN: 0.18 mg/dL
  TOTAL PROTEIN: 5.92 G/DL
  URIC ACID: 1.38 mg/dL
